The target in test [1] is T1, VIP peptides (Cavia porcellus, UniProt P04566).
T1 sequence (P04566 whole entry): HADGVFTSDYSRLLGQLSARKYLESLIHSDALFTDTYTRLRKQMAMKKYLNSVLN

Test [2] deals with T2, VIP peptides (Homo sapiens, UniProt P01282).
T2 sequence (P01282 whole entry): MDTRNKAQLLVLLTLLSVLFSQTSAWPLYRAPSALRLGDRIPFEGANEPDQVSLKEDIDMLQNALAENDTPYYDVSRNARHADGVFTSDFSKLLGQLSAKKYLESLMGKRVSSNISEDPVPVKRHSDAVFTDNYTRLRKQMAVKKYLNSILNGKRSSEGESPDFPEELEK

Several values for one entry are separate records, joined by “and”; a condition that tells them apart may be missing. Equal values may be shown once.

For `CC[C@@H](C)[C@@H](NC(=O)[C@H](CO)NC(=O)[C@H](CC(N)=O)NC(=O)[C@H](CC(C)C)NC(=O)[C@H](Cc1ccc(O)cc1)NC(=O)[C@H](CCCCN)NC(=O)[C@H](CCCCN)NC(=O)[C@@H](NC(=O)[C@H](C)NC(=O)[C@H](CCSC)NC(=O)[C@H](CCC(N)=O)NC(=O)[C@H](CCCCN)NC(=O)[C@H](CCCN=C(N)N)NC(=O)[C@H](CC(C)C)NC(=O)[C@H](CCCN=C(N)N)NC(=O)[C@@H](NC(=O)[C@H](Cc1ccc(O)cc1)NC(=O)[C@H](CC(N)=O)NC(=O)[C@H](CC(=O)O)NC(=O)[C@@H](NC(=O)[C@H](Cc1ccccc1)NC(=O)[C@@H](NC(=O)[C@H](C)NC(=O)[C@H](CC(=O)O)NC(=O)[C@H](CO)NC(=O)[C@@H](N)Cc1cnc[nH]1)C(C)C)[C@@H](C)O)[C@@H](C)O)C(C)C)C(=O)N[C@@H](CC(C)C)C(=O)N[C@@H](CC(N)=O)C(N)=O` [VIP [D-Ile26]], the Ki at VIP peptides [1] was 72.4 nM; on VIP peptides [2], 38.2 nM and 48.9 nM and 33.2 nM.

For the compound `CC[C@H](C)[C@H](NC(=O)[C@H](CO)NC(=O)[C@H](CC(N)=O)NC(=O)[C@H](CC(C)C)NC(=O)[C@H](Cc1ccc(O)cc1)NC(=O)[C@H](CCCCN)NC(=O)[C@H](CCCCN)NC(=O)[C@@H](NC(=O)[C@H](C)NC(=O)[C@H](CCSC)NC(=O)[C@H](CCC(N)=O)NC(=O)[C@H](CCCCN)NC(=O)[C@H](CCCN=C(N)N)NC(=O)[C@@H](CC(C)C)NC(=O)[C@H](CCCN=C(N)N)NC(=O)[C@@H](NC(=O)[C@H](Cc1ccc(O)cc1)NC(=O)[C@H](CC(N)=O)NC(=O)[C@H](CC(=O)O)NC(=O)[C@@H](NC(=O)[C@H](Cc1ccccc1)NC(=O)[C@@H](NC(=O)[C@H](C)NC(=O)[C@H](CC(=O)O)NC(=O)[C@H](CO)NC(=O)[C@@H](N)Cc1cnc[nH]1)C(C)C)[C@@H](C)O)[C@@H](C)O)C(C)C)C(=O)N[C@@H](CC(C)C)C(=O)N[C@@H](CC(N)=O)C(N)=O` [VIP [D-Leu13]], the inhibition constant Ki at VIP peptides [1] was 51.2 nM; at VIP peptides [2] it was 13.5 nM and 23.4 nM and 16.9 nM.

For `CC[C@H](C)[C@H](NC(=O)[C@H](CO)NC(=O)[C@H](CC(N)=O)NC(=O)[C@@H](CC(C)C)NC(=O)[C@H](Cc1ccc(O)cc1)NC(=O)[C@H](CCCCN)NC(=O)[C@H](CCCCN)NC(=O)[C@@H](NC(=O)[C@H](C)NC(=O)[C@H](CCSC)NC(=O)[C@H](CCC(N)=O)NC(=O)[C@H](CCCCN)NC(=O)[C@H](CCCN=C(N)N)NC(=O)[C@H](CC(C)C)NC(=O)[C@H](CCCN=C(N)N)NC(=O)[C@@H](NC(=O)[C@H](Cc1ccc(O)cc1)NC(=O)[C@H](CC(N)=O)NC(=O)[C@H](CC(=O)O)NC(=O)[C@@H](NC(=O)[C@H](Cc1ccccc1)NC(=O)[C@@H](NC(=O)[C@H](C)NC(=O)[C@H](CC(=O)O)NC(=O)[C@H](CO)NC(=O)[C@@H](N)Cc1cnc[nH]1)C(C)C)[C@@H](C)O)[C@@H](C)O)C(C)C)C(=O)N[C@@H](CC(C)C)C(=O)N[C@@H](CC(N)=O)C(N)=O` [VIP [D-Leu23]], the Ki at VIP peptides [1] is 41.6 nM; at VIP peptides [2], 3.1 nM and 19.5 nM and 18.6 nM.

Take `CC[C@H](C)[C@H](NC(=O)[C@H](CO)NC(=O)[C@H](CC(N)=O)NC(=O)[C@H](CC(C)C)NC(=O)[C@H](Cc1ccc(O)cc1)NC(=O)[C@H](CCCCN)NC(=O)[C@H](CCCCN)NC(=O)[C@@H](NC(=O)[C@H](C)NC(=O)[C@H](CCSC)NC(=O)[C@H](CCC(N)=O)NC(=O)[C@@H](CCCCN)NC(=O)[C@H](CCCN=C(N)N)NC(=O)[C@H](CC(C)C)NC(=O)[C@H](CCCN=C(N)N)NC(=O)[C@@H](NC(=O)[C@H](Cc1ccc(O)cc1)NC(=O)[C@H](CC(N)=O)NC(=O)[C@H](CC(=O)O)NC(=O)[C@@H](NC(=O)[C@H](Cc1ccccc1)NC(=O)[C@@H](NC(=O)[C@H](C)NC(=O)[C@H](CC(=O)O)NC(=O)[C@H](CO)NC(=O)[C@@H](N)Cc1cnc[nH]1)C(C)C)[C@@H](C)O)[C@@H](C)O)C(C)C)C(=O)N[C@@H](CC(C)C)C(=O)N[C@@H](CC(N)=O)C(N)=O` [VIP [D-Lys15]]: the Ki at VIP peptides [1] was 19.9 nM; at VIP peptides [2], 2 nM and 13.8 nM and 10.9 nM.

Take `CC[C@H](C)[C@H](NC(=O)[C@H](CO)NC(=O)[C@H](CC(N)=O)NC(=O)[C@H](CC(C)C)NC(=O)[C@H](Cc1ccc(O)cc1)NC(=O)[C@H](CCCCN)NC(=O)[C@@H](CCCCN)NC(=O)[C@@H](NC(=O)[C@H](C)NC(=O)[C@H](CCSC)NC(=O)[C@H](CCC(N)=O)NC(=O)[C@H](CCCCN)NC(=O)[C@H](CCCN=C(N)N)NC(=O)[C@H](CC(C)C)NC(=O)[C@H](CCCN=C(N)N)NC(=O)[C@@H](NC(=O)[C@H](Cc1ccc(O)cc1)NC(=O)[C@H](CC(N)=O)NC(=O)[C@H](CC(=O)O)NC(=O)[C@@H](NC(=O)[C@H](Cc1ccccc1)NC(=O)[C@@H](NC(=O)[C@H](C)NC(=O)[C@H](CC(=O)O)NC(=O)[C@H](CO)NC(=O)[C@@H](N)Cc1cnc[nH]1)C(C)C)[C@@H](C)O)[C@@H](C)O)C(C)C)C(=O)N[C@@H](CC(C)C)C(=O)N[C@@H](CC(N)=O)C(N)=O` [VIP [D-Lys20]]: the Ki at VIP peptides [1] was 17.3 nM; on VIP peptides [2], 4.2 nM and 22.4 nM and 16.9 nM.

For the compound `CC[C@H](C)[C@H](NC(=O)[C@H](CO)NC(=O)[C@H](CC(N)=O)NC(=O)[C@H](CC(C)C)NC(=O)[C@H](Cc1ccc(O)cc1)NC(=O)[C@@H](CCCCN)NC(=O)[C@H](CCCCN)NC(=O)[C@@H](NC(=O)[C@H](C)NC(=O)[C@H](CCSC)NC(=O)[C@H](CCC(N)=O)NC(=O)[C@H](CCCCN)NC(=O)[C@H](CCCN=C(N)N)NC(=O)[C@H](CC(C)C)NC(=O)[C@H](CCCN=C(N)N)NC(=O)[C@@H](NC(=O)[C@H](Cc1ccc(O)cc1)NC(=O)[C@H](CC(N)=O)NC(=O)[C@H](CC(=O)O)NC(=O)[C@@H](NC(=O)[C@H](Cc1ccccc1)NC(=O)[C@@H](NC(=O)[C@H](C)NC(=O)[C@H](CC(=O)O)NC(=O)[C@H](CO)NC(=O)[C@@H](N)Cc1cnc[nH]1)C(C)C)[C@@H](C)O)[C@@H](C)O)C(C)C)C(=O)N[C@@H](CC(C)C)C(=O)N[C@@H](CC(N)=O)C(N)=O` [VIP [D-Lys21]], the Ki at VIP peptides [1] is 100 nM; at VIP peptides [2] it was 93.3 nM and 118 nM and 105 nM.

Take `CC[C@H](C)[C@H](NC(=O)[C@H](CO)NC(=O)[C@H](CC(N)=O)NC(=O)[C@H](CC(C)C)NC(=O)[C@H](Cc1ccc(O)cc1)NC(=O)[C@H](CCCCN)NC(=O)[C@H](CCCCN)NC(=O)[C@@H](NC(=O)[C@H](C)NC(=O)[C@H](CCSC)NC(=O)[C@H](CCC(N)=O)NC(=O)[C@H](CCCCN)NC(=O)[C@H](CCCN=C(N)N)NC(=O)[C@H](CC(C)C)NC(=O)[C@H](CCCN=C(N)N)NC(=O)[C@H](NC(=O)[C@H](Cc1ccc(O)cc1)NC(=O)[C@H](CC(N)=O)NC(=O)[C@H](CC(=O)O)NC(=O)[C@@H](NC(=O)[C@H](Cc1ccccc1)NC(=O)[C@@H](NC(=O)[C@H](C)NC(=O)[C@H](CC(=O)O)NC(=O)[C@H](CO)NC(=O)[C@@H](N)Cc1cnc[nH]1)C(C)C)[C@@H](C)O)[C@H](C)O)C(C)C)C(=O)N[C@@H](CC(C)C)C(=O)N[C@@H](CC(N)=O)C(N)=O` [VIP [D-Thr11]]: the inhibition constant (Ki) was 54.9 nM on VIP peptides [1]; 54.9 nM and 91.2 nM and 110 nM on VIP peptides [2].

Turning to `CC[C@H](C)[C@H](NC(=O)[C@H](CO)NC(=O)[C@H](CC(N)=O)NC(=O)[C@H](CC(C)C)NC(=O)[C@H](Cc1ccc(O)cc1)NC(=O)[C@H](CCCCN)NC(=O)[C@H](CCCCN)NC(=O)[C@@H](NC(=O)[C@H](C)NC(=O)[C@H](CCSC)NC(=O)[C@H](CCC(N)=O)NC(=O)[C@H](CCCCN)NC(=O)[C@H](CCCN=C(N)N)NC(=O)[C@H](CC(C)C)NC(=O)[C@H](CCCN=C(N)N)NC(=O)[C@@H](NC(=O)[C@@H](Cc1ccc(O)cc1)NC(=O)[C@H](CC(N)=O)NC(=O)[C@H](CC(=O)O)NC(=O)[C@@H](NC(=O)[C@H](Cc1ccccc1)NC(=O)[C@@H](NC(=O)[C@H](C)NC(=O)[C@H](CC(=O)O)NC(=O)[C@H](CO)NC(=O)[C@@H](N)Cc1cnc[nH]1)C(C)C)[C@@H](C)O)[C@@H](C)O)C(C)C)C(=O)N[C@@H](CC(C)C)C(=O)N[C@@H](CC(N)=O)C(N)=O` [VIP [D-Tyr10]], the Ki is 23.4 nM on VIP peptides [1]; 3.7 nM and 32.3 nM and 24.5 nM on VIP peptides [2].

As for `CC[C@H](C)[C@H](NC(=O)[C@H](CO)NC(=O)[C@H](CC(N)=O)NC(=O)[C@H](CC(C)C)NC(=O)[C@H](Cc1ccc(O)cc1)NC(=O)[C@H](CCCCN)NC(=O)[C@H](CCCCN)NC(=O)[C@@H](NC(=O)[C@H](C)NC(=O)[C@H](CCSC)NC(=O)[C@H](CCC(N)=O)NC(=O)[C@H](CCCCN)NC(=O)[C@H](CCCN=C(N)N)NC(=O)[C@H](CC(C)C)NC(=O)[C@H](CCCN=C(N)N)NC(=O)[C@@H](NC(=O)[C@H](Cc1ccc(O)cc1)NC(=O)[C@H](CC(N)=O)NC(=O)[C@H](CC(=O)O)NC(=O)[C@@H](NC(=O)[C@H](Cc1ccccc1)NC(=O)[C@H](NC(=O)[C@H](C)NC(=O)[C@H](CC(=O)O)NC(=O)[C@H](CO)NC(=O)[C@@H](N)Cc1cnc[nH]1)C(C)C)[C@@H](C)O)[C@@H](C)O)C(C)C)C(=O)N[C@@H](CC(C)C)C(=O)N[C@@H](CC(N)=O)C(N)=O` [VIP [D-Val5]], the inhibition constant (Ki) on VIP peptides [1] was 26.3 nM; on VIP peptides [2] it was 6.2 nM and 44.6 nM and 25.1 nM.

“H-ASDAVFTDNYTRLRKQMAVKKYLNSILN-NH2 [VIP Ala1]”: the Ki is 95.4 nM on VIP peptides [1]; 16.9 nM and 89.1 nM and 64.5 nM at VIP peptides [2].

Take “H-HADAVFTDNYTRLRKQMAVKKYLNSILN-NH2 [VIP Ala2]”: the inhibition constant (Ki) on VIP peptides [1] was 2.6 nM; on VIP peptides [2] it was 0.43 nM and 3.6 nM and 2.7 nM.

For the compound “H-HSDAVFTANYTRLRKQMAVKKYLNSILN-NH2 [VIP Ala8]”, the Ki on VIP peptides [1] was 1.2 nM; at VIP peptides [2], 0.17 nM and 1.6 nM and 1.2 nM.

In the case of “H-HSDAVFTDNATRLRKQMAVKKYLNSILN-NH2 [VIP Ala10]”, the Ki was 54.9 nM on VIP peptides [1]; 61.7 nM and 56.2 nM and 44.7 nM on VIP peptides [2].

Take “H-HSDAVFTDNYTRLRAQMAVKKYLNSILN-NH2 [VIP Ala15]”: the Ki at VIP peptides [1] is 1.9 nM; at VIP peptides [2], 2.1 nM and 16.2 nM and 15.9 nM.

Consider “H-HSDAVFTDNYTRLRKQMAVKKYLNSILA-NH2 [VIP Ala28]”, for which the Ki on VIP peptides [1] is 4.3 nM; at VIP peptides [2], 0.54 nM and 2.7 nM and 2.8 nM.

As a reminder, the Ki is the equilibrium dissociation constant of an inhibitor or competing ligand from its target. High values mean weaker binding, low ones tighter binding.
